# Test results as given in PubChem BioAssay (NCI).
#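 These data come from cells grown in 96-well plates and exposed to compound for 48 hours at five concentrations. At the TGI there is no net growth.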
# Legend:
# Experiment in all cases: growth of human tumour cells (NCI), 48 h
# [1] = system: 786-0 renal
# [2] = system: A498 renal
# [3] = system: A549 NSCLC
# [4] = system: ACHN renal
# [5] = system: CAKI-1 renal
# [6] = system: CCRF-CEM leukemia
# [7] = system: COLO 205 colon
# [8] = system: DU-145 prostate
# [9] = system: EKVX NSCLC
# [10] = system: HCC-2998 colon
# [11] = system: HCT-116 colon
# [12] = system: HCT-15 colon
# [13] = system: HL-60(TB) leukemia
# [14] = system: HOP-62 NSCLC
# [15] = system: HS 578T breast
# [16] = system: HT29 colon
# [17] = system: IGROV1 ovarian
# [18] = system: K-562 leukemia
# [19] = system: LOX IMVI melanoma
# [20] = system: M14 melanoma
# [21] = system: MALME-3M melanoma
# [22] = system: MCF7 breast
# [23] = system: MDA-MB-231 breast
# [24] = system: MDA-MB-435
# [25] = system: MDA-N
# [26] = system: MOLT-4 leukemia
# [27] = system: NCI-H226 lung
# [28] = system: NCI-H23 lung
# [29] = system: NCI-H460 lung
# [30] = system: NCI-H522 lung
# [31] = system: NCI/ADR-RES ovarian
# [32] = system: OVCAR-3 ovarian
# [33] = system: OVCAR-4 ovarian
# [34] = system: OVCAR-5 ovarian
# [35] = system: OVCAR-8 ovarian
# [36] = system: PC-3 prostate
# [37] = system: RPMI-8226 leukemia
# [38] = system: RXF 393 renal
# [39] = system: SF-268 CNS
# [40] = system: SF-295 CNS
# [41] = system: SF-539 CNS
# [42] = system: SK-MEL-2 melanoma
# [43] = system: SK-MEL-28 melanoma
# [44] = system: SK-MEL-5 melanoma
# [45] = system: SK-OV-3 ovarian
# [46] = system: SN12C renal
# [47] = system: SNB-19 CNS
# [48] = system: SNB-75 CNS
# [49] = system: SR leukemia
# [50] = system: SW-620 colon
# [51] = system: T-47D breast
# [52] = system: TK-10 renal
# [53] = system: U251 CNS
# [54] = system: UACC-257 melanoma
# [55] = system: UACC-62 melanoma
# [56] = system: UO-31 renal
# [57] = system: BT-549 breast
# [58] = system: HOP-92 NSCLC
# [59] = system: KM12 colon
compound,measurement,setting,value
O=C1NCN(c2ccccc2)C12CCN(CC1COc3ccccc3O1)CC2 (configuration not stated),TGI,[1],> 100 µM
same,TGI,[2],> 100 µM
same,TGI,[3],> 100 µM
same,TGI,[4],> 100 µM
same,TGI,[5],> 100 µM
same,TGI,[6],> 100 µM
same,TGI,[7],> 100 µM
same,TGI,[8],> 100 µM
same,TGI,[9],98.2 µM
same,TGI,[10],> 100 µM
same,TGI,[11],> 100 µM
same,TGI,[12],> 100 µM
same,TGI,[13],> 100 µM
same,TGI,[14],52.8 µM
same,TGI,[15],71.8 µM
same,TGI,[16],> 100 µM
same,TGI,[17],> 100 µM
same,TGI,[18],> 100 µM
same,TGI,[19],> 100 µM
same,TGI,[20],> 100 µM
same,TGI,[21],> 100 µM
same,TGI,[22],> 100 µM
same,TGI,[23],> 100 µM
same,TGI,[24],> 100 µM
same,TGI,[25],> 100 µM
same,TGI,[26],> 100 µM
same,TGI,[27],> 100 µM
same,TGI,[28],> 100 µM
same,TGI,[29],> 100 µM
same,TGI,[30],> 100 µM
same,TGI,[31],> 100 µM
same,TGI,[32],> 100 µM
same,TGI,[33],> 100 µM
same,TGI,[34],> 100 µM
same,TGI,[35],> 100 µM
same,TGI,[36],> 100 µM
same,TGI,[37],> 100 µM
same,TGI,[38],96.5 µM
same,TGI,[39],> 100 µM
same,TGI,[40],> 100 µM
same,TGI,[41],> 100 µM
same,TGI,[42],> 100 µM
same,TGI,[43],> 100 µM
same,TGI,[44],> 100 µM
same,TGI,[45],> 100 µM
same,TGI,[46],> 100 µM
same,TGI,[47],85.3 µM
same,TGI,[48],71.4 µM
same,TGI,[49],> 100 µM
same,TGI,[50],> 100 µM
same,TGI,[51],> 100 µM
same,TGI,[52],> 100 µM
same,TGI,[53],79.6 µM
same,TGI,[54],> 100 µM
same,TGI,[55],> 100 µM
same,TGI,[56],> 100 µM
O=c1[nH][nH]c(=O)c2c1ccc1oc3ccccc3c12,TGI,[1],> 100 µM
same,TGI,[2],> 100 µM
same,TGI,[3],> 100 µM
same,TGI,[4],> 100 µM
same,TGI,[57],> 100 µM
same,TGI,[5],> 100 µM
same,TGI,[6],> 100 µM
same,TGI,[7],> 100 µM
same,TGI,[8],> 100 µM
same,TGI,[9],> 100 µM
same,TGI,[10],> 100 µM
same,TGI,[11],> 100 µM
same,TGI,[13],> 100 µM
same,TGI,[14],> 100 µM
same,TGI,[58],> 100 µM
same,TGI,[15],> 100 µM
same,TGI,[16],> 100 µM
same,TGI,[17],> 100 µM
same,TGI,[18],> 100 µM
same,TGI,[59],> 100 µM
same,TGI,[20],> 100 µM
same,TGI,[21],> 100 µM
same,TGI,[22],> 100 µM
same,TGI,[23],> 100 µM
same,TGI,[24],> 100 µM
same,TGI,[25],> 100 µM
same,TGI,[26],> 100 µM
same,TGI,[27],> 100 µM
same,TGI,[28],> 100 µM
same,TGI,[29],> 100 µM
same,TGI,[30],> 100 µM
same,TGI,[32],> 100 µM
same,TGI,[33],> 100 µM
same,TGI,[34],> 100 µM
same,TGI,[35],> 100 µM
same,TGI,[36],> 100 µM
same,TGI,[37],> 100 µM
same,TGI,[38],> 100 µM
same,TGI,[39],> 100 µM
same,TGI,[40],> 100 µM
same,TGI,[41],> 100 µM
same,TGI,[42],> 100 µM
same,TGI,[43],> 100 µM
same,TGI,[44],> 100 µM
same,TGI,[45],> 100 µM
same,TGI,[46],> 100 µM
same,TGI,[47],> 100 µM
same,TGI,[48],> 100 µM
same,TGI,[49],> 100 µM
same,TGI,[50],> 100 µM
same,TGI,[51],> 100 µM
same,TGI,[52],> 100 µM
same,TGI,[53],> 100 µM
same,TGI,[54],> 100 µM
same,TGI,[55],> 100 µM
same,TGI,[56],> 100 µM
